According to PubChem BioAssay (NCI):
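Tested at 5 concentrations; 48 h exposure; 96-well plates; endpoints linearly interpolated, else capped at highest concentration. At the GI50, growth is halved. TGI marks complete inhibition of growth.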

Key:
Experiment in all cases: NCI-60 cell line screen, 48 h
SK-MEL-28 melanoma = system: SK-MEL-28 melanoma
CCRF-CEM leukemia = system: CCRF-CEM leukemia
NCI-H23 lung = system: NCI-H23 lung
HCT-116 colon = system: HCT-116 colon
A498 renal = system: A498 renal
SNB-75 CNS = system: SNB-75 CNS
TK-10 renal = system: TK-10 renal
PC-3 prostate = system: PC-3 prostate
T-47D breast = system: T-47D breast
HS 578T breast = system: HS 578T breast
MDA-MB-231 breast = system: MDA-MB-231 breast

Row | Structure (SMILES) | TGI (SK-MEL-28 melanoma) | TGI (CCRF-CEM leukemia) | TGI (NCI-H23 lung) | TGI (HCT-116 colon) | TGI (A498 renal) | TGI (SNB-75 CNS) | TGI (TK-10 renal) | TGI (PC-3 prostate) | TGI (T-47D breast) | TGI (HS 578T breast) | TGI (MDA-MB-231 breast) | GI50 (A498 renal)
1 | CCOC(=O)/C(C1=NCCN1C)=C(\O)c1ccccc1 | > 100 µM | > 100 µM | > 100 µM | > 100 µM |  |  |  |  |  |  |  | 
2 | O=C(c1ccccc1)n1cc(/C=C/[N+](=O)[O-])c2ccccc21 | 33.6 µM | 35.1 µM | 37.6 µM | 32 µM | > 100 µM | 82.1 µM | > 100 µM |  |  |  |  | 
3 | Cc1cc(C)c(NS(=O)c2ccc(Cl)cc2)c(C)c1 (configuration not stated) | > 100 µM | > 100 µM | > 100 µM | > 100 µM | > 100 µM |  | > 100 µM | > 100 µM | > 100 µM |  |  | 
4 | Cc1c2c(n3c(nc4ccccc43)c1C#N)N(c1ccc(F)cc1)CC2 | > 100 µM | > 100 µM | > 100 µM | > 100 µM | > 100 µM | > 100 µM | > 100 µM | > 100 µM |  | > 100 µM |  | 
5 | C#CN1C(=O)c2c(c(-c3ccccc3)c(-c3ccc(Oc4ccc(-c5c(-c6ccccc6)c6c(c(-c7ccccc7)c5-c5ccccc5)C(=O)N(C#C)C6=O)cc4)cc3)c(-c3ccccc3)c2-c2ccccc2)C1=O | > 100 µM | > 100 µM | > 100 µM | > 100 µM |  | > 100 µM | > 100 µM |  |  |  |  | 
6 | Cc1c(-c2coc(-c3ccc([N+](=O)[O-])cc3)n2)c(=O)n(-c2ccccc2)n1C | > 100 µM | > 100 µM | > 100 µM | > 100 µM | > 100 µM | > 100 µM | > 100 µM |  |  |  |  | 
7 | N#CCCC1(CCC#N)S(=O)(=O)OCCOS1(=O)=O | > 100 µM | > 100 µM | > 100 µM | > 100 µM |  | > 100 µM | > 100 µM | > 100 µM | > 100 µM | 78.4 µM |  | 
8 | CCC1(c2ccc(OC)c(OC)c2)CCN(S(=O)(=O)c2ccc(C)cc2)C1 (configuration not stated) | > 10 µM | > 100 µM | > 100 µM | > 100 µM |  | > 100 µM | > 100 µM | > 100 µM | > 100 µM |  | > 100 µM | 
9 | COc1ccc(C[C@H]2COC(=O)[C@@H]2Cc2ccc(Br)cc2)cc1OC | > 100 µM | > 100 µM | > 100 µM | > 89.7 µM |  | 85.1 µM | > 94.2 µM | 52.1 µM | > 100 µM | > 90.9 µM | 77.2 µM | 
10 | Cc1ccc(S(=O)(=O)c2ccc(C)cc2[N+](=O)[O-])c([N+](=O)[O-])c1 | > 100 µM | > 100 µM | > 100 µM | > 100 µM |  | > 100 µM | > 100 µM |  |  |  |  | 
11 | c1ccc2cc(C3NCCc4[nH]cnc43)ccc2c1 (configuration not stated) | > 100 µM | 91.6 µM | > 100 µM | > 100 µM | 88.5 µM | > 100 µM | 82.1 µM |  |  |  |  | 
12 | O=c1[nH]c(=O)n([C@H]2C[C@@H](CO)[C@@H](O)C2)cc1I | > 100 µM | > 100 µM | > 100 µM | > 100 µM | > 100 µM | > 100 µM | > 100 µM |  |  |  |  | 
13 | COC(=O)C(=O)C(C(=O)OC)C(=O)C(=O)Nc1cc(Cl)c(C)cc1S(=O)(=O)O (configuration not stated) | > 100 µM | > 100 µM | > 100 µM | > 100 µM | > 100 µM | > 100 µM | > 100 µM |  |  |  |  | 
14 | CC(C)CCNC(=O)c1ccc(CNC(=O)/C=C/c2ccc3ccccc3c2)cc1 | > 100 µM |  | > 100 µM | > 100 µM | > 100 µM | > 100 µM |  | > 100 µM | > 100 µM |  | > 100 µM | 
15 | O=C(O)C12C3CCC(C3)C1(C(=O)O)C1CCC2C1 (configuration not stated) | > 100 µM | 95 µM | > 100 µM | > 100 µM | > 100 µM | > 100 µM | > 100 µM |  |  |  |  | 
16 | Cc1cc2c(cc1Cl)SC(NNCCO)=NS2(=O)=O | > 100 µM | > 100 µM | > 100 µM | > 100 µM |  | > 100 µM | > 100 µM | > 100 µM | > 100 µM | > 100 µM | > 100 µM | 
17 | Cc1ccccc1N(CCC#N)C1=NN(C(=O)CC(=O)Nc2ccc(Cl)cc2)C(c2ccccc2)C1 (configuration not stated) | > 100 µM | > 100 µM | > 100 µM | > 100 µM |  | > 100 µM |  |  |  |  |  | 
18 | O=C1C(Cl)C(c2ccc(O)cc2)N1n1cnc2ccccc2c1=O (configuration not stated) | 70.2 µM | > 100 µM | > 96.3 µM | 33 µM | > 100 µM | > 100 µM | > 100 µM |  |  |  |  | 
19 | O=C(Nn1c(-c2ccccc2)nc2ccccc2c1=O)c1cccc([N+](=O)[O-])c1 | > 100 µM | > 100 µM | > 100 µM | > 100 µM | > 100 µM | > 100 µM | > 100 µM | > 100 µM | > 100 µM | > 100 µM |  | 

Row | Structure (SMILES) | TGI (SK-MEL-28 melanoma) | TGI (CCRF-CEM leukemia) | TGI (NCI-H23 lung) | TGI (HCT-116 colon) | TGI (A498 renal) | TGI (SNB-75 CNS) | TGI (TK-10 renal) | TGI (PC-3 prostate) | TGI (T-47D breast) | TGI (HS 578T breast) | TGI (MDA-MB-231 breast) | GI50 (A498 renal)
20 | COC(=O)c1cc(/C=C/C(=O)Cc2ccccc2)cn1S(=O)(=O)c1ccccc1 |  | > 100 µM | > 100 µM | > 100 µM |  | > 100 µM | > 100 µM | > 100 µM | > 100 µM | > 100 µM | > 100 µM | 
21 | Cn1c2ncccc2n2c(=O)cc(O)cc12 | > 100 µM | > 100 µM | > 100 µM | > 100 µM | > 100 µM | > 100 µM | > 100 µM | > 100 µM | 95.7 µM |  | > 100 µM | 
22 | Cc1cc(NS(=O)(=O)c2ccc(NO)cc2)no1 | > 100 µM | 44.7 µM |  | > 100 µM | > 100 µM | > 100 µM | > 100 µM | > 100 µM |  | > 100 µM | > 100 µM | 
23 | CC(=O)N1C(c2[nH]c3ccccc3c2Cc2ccccc2)CCN1c1ccccc1 (configuration not stated) | > 10 µM | > 10 µM | > 10 µM | > 10 µM |  | > 10 µM | > 10 µM | > 10 µM | > 10 µM | > 10 µM | > 10 µM | 
24 | O=c1cccccc1[O-].O=c1cccccc1[O-].O=c1cccccc1[O-].[Nd+3] |  | > 100 µM | > 100 µM | 68.4 µM | > 100 µM |  | > 100 µM |  |  |  |  | 81.4 µM
25 | COc1ccc(/C=C2/SC(=Nc3ccccc3)N(NC(=O)Cc3ccccc3)C2=O)cc1 | > 100 µM | > 100 µM | > 100 µM | > 100 µM | > 100 µM | > 100 µM | > 100 µM |  | > 100 µM | > 100 µM | > 100 µM | 
26 | CN1CCCS/C1=C1/SC(=S)N(c2ccccc2)C1=O | > 100 µM | > 100 µM | > 100 µM | > 100 µM | > 100 µM | > 100 µM | > 100 µM |  |  |  |  | 
27 | N#CCCC(C#N)(C#N)CCC#N | > 100 µM |  | > 100 µM | > 100 µM |  |  | > 100 µM |  |  |  |  | 
28 | COc1ccc2nc3c4c(nccc4c2c1)-c1ncccc1C3=O | 0.655 µM | 2.57 µM | 0.265 µM | 0.467 µM | 0.224 µM | 0.378 µM | 0.613 µM | 3.14 µM | 4.81 µM |  | 3.94 µM | 
29 | CN1CCS(=O)(=O)NC(Cc2ccccc2)C(=O)N2CCCC2C1=O (configuration not stated) | > 100 µM | > 100 µM | > 100 µM | > 100 µM | > 100 µM | > 100 µM | > 100 µM |  |  |  |  | 
30 | C/C=C1\Oc2ccc(OC)cc2S1(=O)=O | > 100 µM | > 100 µM | > 100 µM | > 100 µM | > 100 µM | > 100 µM | > 100 µM |  |  |  |  | 
31 | COP12(OC)NC(=O)OC1(C(F)(F)F)c1ccccc1O2 (configuration not stated) | > 100 µM | > 100 µM | > 100 µM | > 100 µM |  | > 100 µM | > 100 µM |  |  |  |  | 
32 | O=C1CCC(=O)c2ccccc2N1 | > 100 µM | > 100 µM | > 100 µM | > 100 µM | > 100 µM | > 100 µM | > 100 µM |  |  |  |  | 
33 | Cc1cn(C2CC(O)C(Cn3nncc3Cn3cnc4c(N)ncnc43)O2)c(=O)[nH]c1=O (configuration not stated) | > 100 µM | > 100 µM | > 100 µM | > 100 µM | > 100 µM | > 100 µM | > 100 µM | > 100 µM | > 100 µM | > 100 µM |  | 
34 | COc1nc(=O)[nH]c2c1C(c1ccc([N+](=O)[O-])cc1)c1c(OC)nc(=O)[nH]c1O2 | > 100 µM | > 100 µM | > 100 µM | > 100 µM | > 100 µM |  | > 100 µM | > 100 µM |  | > 100 µM | > 100 µM | 
35 | N#Cc1c(-c2ccccc2)cn(C(=O)c2ccccc2)c1N | > 100 µM | > 100 µM | > 100 µM | > 100 µM |  | > 100 µM | > 100 µM | > 100 µM |  | > 100 µM | > 100 µM | 
36 | CN1C(=O)C(=Cc2ccc(Br)cc2)C(=O)N(C)C1=O | > 100 µM | > 100 µM | > 100 µM | > 100 µM | > 100 µM | > 100 µM | > 100 µM | > 100 µM | > 100 µM |  | > 100 µM | 
37 | COc1ccc(S(=O)(=O)N/N=C(\C)CN2C(=O)c3ccccc3C2=O)cc1OC | > 100 µM | > 100 µM | > 100 µM | > 100 µM | > 100 µM | > 100 µM | > 100 µM |  |  |  |  | 
38 | c1cc2c(cc1C1OCC3C(c4ccc5c(c4)OCO5)OCC13)OCO2 (configuration not stated) | > 100 µM | > 100 µM | > 100 µM | > 100 µM | > 100 µM | > 100 µM | > 100 µM |  |  |  |  | 
